Experimental data: ChEMBL document CHEMBL1155393, “Rational design of potent GSK3beta inhibitors with selectivity for Cdk1 and Cdk2” (Bioorg Med Chem Lett, 2010)

Biological target: Glycogen synthase kinase-3 beta (Homo sapiens, UniProt P49841)
Test: Inhibition of human recombinant GSK3-beta using gamma[33P]-ATP after 30 mins by scintillation proximity assay

Sequence of Glycogen synthase kinase-3 beta (P49841 whole entry): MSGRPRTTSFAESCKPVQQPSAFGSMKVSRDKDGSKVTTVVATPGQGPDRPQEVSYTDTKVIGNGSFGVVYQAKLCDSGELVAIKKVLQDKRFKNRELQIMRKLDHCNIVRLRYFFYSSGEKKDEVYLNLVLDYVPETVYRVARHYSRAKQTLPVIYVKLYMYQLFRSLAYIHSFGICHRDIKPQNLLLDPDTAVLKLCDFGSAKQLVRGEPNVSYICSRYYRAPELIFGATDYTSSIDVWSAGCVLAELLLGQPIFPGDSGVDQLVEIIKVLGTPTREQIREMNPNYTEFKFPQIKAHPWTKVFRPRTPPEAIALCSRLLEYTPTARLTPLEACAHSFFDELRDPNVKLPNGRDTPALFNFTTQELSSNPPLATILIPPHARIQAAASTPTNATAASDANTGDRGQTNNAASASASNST

Structure (SMILES)	IC50 [nM]
CCCC(=O)Nc1n[nH]c2cc(Cc3ccccc3)ccc12	4140
CCCC(=O)Nc1n[nH]c2cc(-c3ccc(F)cc3)ccc12	5010
CCCC(=O)Nc1n[nH]c2cc(-c3ccc(Oc4ccccc4)cc3)c(-c3ccc(Oc4ccccc4)cc3)cc12	> 10000
CCCC(=O)Nc1n[nH]c2cc(-c3ccc(CC)cc3)ccc12	> 100000
CCCC(=O)Nc1n[nH]c2cc(-c3ccccc3)ccc12	1280
CCCC(=O)Nc1n[nH]c2cc(-c3ccc(OC(F)(F)F)cc3)ccc12	5500
CCCC(=O)Nc1n[nH]c2cc(-c3ccc(N)nc3)ccc12	1090
CCCC(=O)Nc1n[nH]c2cc(-c3ccc(OC)cc3)ccc12	> 100000
CCCC(=O)Nc1n[nH]c2cc(-c3ccc(Cl)cc3)ccc12	> 100000
CCCC(=O)Nc1n[nH]c2cc(-c3ccc(N(C)C)cc3)ccc12	12200
N#Cc1ccc(-c2ccc3c(NC(=O)CCC(=O)O)n[nH]c3c2)cc1	20500
CCCC(=O)Nc1n[nH]c2cc(-c3ccccc3Cl)ccc12	1350
CCCC(=O)Nc1n[nH]c2cc(-c3ccc4c(c3)COO4)ccc12	25000
CCCC(=O)Nc1n[nH]c2cc(CCc3ccccc3)ccc12	8530
C/C=C/c1ccc2c(NC(=O)CCC)n[nH]c2c1	2460
CCCC(=O)Nc1n[nH]c2cc(-c3ccc(OCc4ccccc4)cc3)ccc12	1180
CCCC(=O)Nc1n[nH]c2cc(-c3ccc(SC)cc3)ccc12	7160
CCCC(=O)Nc1n[nH]c2cc(-c3ccc(O)nc3)ccc12	16800
CCCC(=O)Nc1n[nH]c2cc(-c3cc(F)cc(F)c3)ccc12	2890
CCCC(=O)Nc1n[nH]c2cc(-c3ccc(C(F)(F)F)cc3)ccc12	10500
Cc1ccc(-c2ccc3c(NC(=O)CCC(=O)O)n[nH]c3c2)cc1	17100
CCCC(=O)Nc1n[nH]c2cc(-c3cc(Cl)cc(Cl)c3)ccc12	5410
CCCC(=O)Nc1n[nH]c2cc(-c3ccc([N+](=O)[O-])cc3)ccc12	> 100000
CCCC(=O)Nc1n[nH]c2cc(-c3ccc(C(C)(C)C)cc3)ccc12	3810
CCCC(=O)Nc1n[nH]c2cc(-c3ccccc3)c(-c3ccccc3)cc12	1720
O=C(O)CCC(=O)Nc1n[nH]c2cc(Cl)ccc12	1180

These reach a lower IC50. Values come first.

IC50 [nM]	Structure (SMILES)
55	CCCC(=O)Nc1n[nH]c2cc(-c3ccc(O)cc3Cl)ccc12
5	CCCC(=O)Nc1n[nH]c2cc(-c3ccc(O)cc3)c(Br)cc12
18	CCCC(=O)Nc1n[nH]c2cc(Cl)c(-c3ccc([N+](=O)[O-])cc3)cc12
55	CCCC(=O)Nc1n[nH]c2cc(-c3ccc(O)cc3)c(-c3ccccc3)cc12
27	CCCC(=O)Nc1n[nH]c2cc(-c3ccc(O)c(O)c3)ccc12
44	CCCC(=O)Nc1n[nH]c2cc(-c3ccc(O)cc3)ccc12
7	CCCC(=O)Nc1n[nH]c2cc(Cl)c(-c3ccccc3)cc12
661	CCCC(=O)Nc1n[nH]c2cc(-c3ccncc3)ccc12
50	CCCC(=O)Nc1n[nH]c2cc(Cl)c(-c3ccncc3)cc12
49	CCCC(=O)Nc1n[nH]c2cc(-c3ccc(O)cc3)c(-c3ccc(CC)cc3)cc12
23	CCCC(=O)Nc1n[nH]c2cc(Cl)c(-c3ccc(OCc4ccccc4)cc3)cc12
149	CCCC(=O)Nc1n[nH]c2cc(-c3ccc(O)cc3)c(-c3cccnc3)cc12
354	CCCC(=O)Nc1n[nH]c2cc(Cl)ccc12
14	CCCC(=O)Nc1n[nH]c2cc(Cl)c(-c3ccc(C)cc3)cc12
56	CCCC(=O)Nc1n[nH]c2cc(-c3ccc(O)cc3)c(-c3ccc(O)cc3)cc12
94	CCCC(=O)Nc1n[nH]c2cc(-c3cccc(O)c3)ccc12
198	CCCC(=O)Nc1n[nH]c2cc(Br)ccc12
935	CCCC(=O)Nc1n[nH]c2cc(-c3ccsc3)ccc12
260	CCCC(=O)Nc1n[nH]c2cc(-c3ccoc3)ccc12
10	CCCC(=O)Nc1n[nH]c2cc(Cl)c(-c3ccc(O)cc3)cc12
12	CCCC(=O)Nc1n[nH]c2cc(Cl)c(-c3ccc(CC)cc3)cc12
22	CCCC(=O)Nc1n[nH]c2cc(Cl)c(-c3ccc(F)cc3)cc12
11	CCCC(=O)Nc1n[nH]c2cc(Cl)c(-c3ccoc3)cc12
195	CCCC(=O)Nc1n[nH]c2cc(C(F)(F)F)ccc12
14	CCCC(=O)Nc1n[nH]c2cc(-c3ccc(O)cc3)c(-c3ccco3)cc12
76	CCCC(=O)Nc1n[nH]c2cc(-c3ccc(N)cc3)ccc12
6	CCCC(=O)Nc1n[nH]c2c(F)c(Cl)c(-c3ccccc3)cc12
12	CCCC(=O)Nc1n[nH]c2c(Cl)c(Cl)c(-c3ccccc3)cc12
8	CCCC(=O)Nc1n[nH]c2cc(Cl)c(-c3ccc(N)cc3)cc12
98	CCCC(=O)Nc1n[nH]c2cc(-c3ccc(O)cc3)c(-c3ccoc3)cc12

Biological target: Microtubule-associated protein tau (Rattus norvegicus, UniProt P19332)
Sequence (P19332 whole entry): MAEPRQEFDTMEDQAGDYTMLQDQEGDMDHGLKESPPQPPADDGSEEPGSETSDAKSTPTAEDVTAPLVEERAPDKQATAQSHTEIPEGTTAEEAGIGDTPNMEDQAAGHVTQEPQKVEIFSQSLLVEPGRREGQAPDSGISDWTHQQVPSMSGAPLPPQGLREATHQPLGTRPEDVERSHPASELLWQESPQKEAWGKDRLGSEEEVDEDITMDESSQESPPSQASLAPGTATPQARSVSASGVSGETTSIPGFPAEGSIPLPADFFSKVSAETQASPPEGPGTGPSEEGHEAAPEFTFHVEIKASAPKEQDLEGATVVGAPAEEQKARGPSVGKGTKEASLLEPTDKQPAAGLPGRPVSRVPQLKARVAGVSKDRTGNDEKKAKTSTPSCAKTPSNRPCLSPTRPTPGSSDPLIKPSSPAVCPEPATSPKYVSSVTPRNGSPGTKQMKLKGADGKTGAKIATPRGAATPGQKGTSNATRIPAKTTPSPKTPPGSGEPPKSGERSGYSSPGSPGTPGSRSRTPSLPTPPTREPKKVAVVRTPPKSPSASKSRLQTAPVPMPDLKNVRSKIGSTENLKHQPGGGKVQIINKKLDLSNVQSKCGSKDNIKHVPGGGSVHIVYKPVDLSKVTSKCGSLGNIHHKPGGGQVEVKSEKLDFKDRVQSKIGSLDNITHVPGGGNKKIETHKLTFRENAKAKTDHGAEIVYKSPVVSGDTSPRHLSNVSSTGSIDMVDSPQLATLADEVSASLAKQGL
Test: Inhibition of Tau phosphorylation in rat cerebral cortex after 120 mins by chemiluminescence assay
Assay type: tissue-based

IC50 [nM]	Structure (SMILES)
400	CCCC(=O)Nc1n[nH]c2cc(Cl)c(-c3ccccc3)cc12
250	CCCC(=O)Nc1n[nH]c2c(F)c(Cl)c(-c3ccccc3)cc12

Biological target: Cyclin-dependent kinase 1 (Homo sapiens, UniProt P06493)
Sequence (P06493 whole entry): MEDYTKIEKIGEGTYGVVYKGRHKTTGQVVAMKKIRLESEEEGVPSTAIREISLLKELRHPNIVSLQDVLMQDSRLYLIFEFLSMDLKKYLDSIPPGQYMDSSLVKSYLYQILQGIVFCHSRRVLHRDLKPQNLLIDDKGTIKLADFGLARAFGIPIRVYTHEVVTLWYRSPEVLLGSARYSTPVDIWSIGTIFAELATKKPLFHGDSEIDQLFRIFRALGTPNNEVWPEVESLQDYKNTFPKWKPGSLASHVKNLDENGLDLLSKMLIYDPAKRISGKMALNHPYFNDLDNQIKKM
Test: Inhibition of Cdk1

IC50 [nM]	Structure (SMILES)
100	CCCC(=O)Nc1n[nH]c2cc(Cl)c(-c3ccccc3)cc12
2500	CCCC(=O)Nc1n[nH]c2c(F)c(Cl)c(-c3ccccc3)cc12

Biological target: Cyclin-dependent kinase 2 (Homo sapiens, UniProt P24941)
Test: not given

IC50 [nM]	Structure (SMILES)
3160	CCCC(=O)Nc1n[nH]c2c(F)c(Cl)c(-c3ccccc3)cc12
> 10000	CCCC(=O)Nc1n[nH]c2c(Cl)c(Cl)c(-c3ccccc3)cc12

Biological target: Aurora kinase A (Homo sapiens) (UniProt O14965)
Sequence (O14965 whole entry, looked up): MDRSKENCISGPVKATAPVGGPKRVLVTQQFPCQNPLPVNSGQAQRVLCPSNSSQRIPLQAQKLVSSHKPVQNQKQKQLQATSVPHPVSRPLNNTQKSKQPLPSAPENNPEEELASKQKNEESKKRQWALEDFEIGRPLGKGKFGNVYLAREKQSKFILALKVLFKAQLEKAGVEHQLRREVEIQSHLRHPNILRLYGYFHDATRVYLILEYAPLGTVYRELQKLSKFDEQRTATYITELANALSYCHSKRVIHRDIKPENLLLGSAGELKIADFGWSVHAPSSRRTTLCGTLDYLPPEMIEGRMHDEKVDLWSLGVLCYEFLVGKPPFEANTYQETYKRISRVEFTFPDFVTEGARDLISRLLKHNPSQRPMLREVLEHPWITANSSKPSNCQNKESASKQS
Test: Inhibition of Aurora kinase 2

IC50 [nM]	Structure (SMILES)
> 30000	CCCC(=O)Nc1n[nH]c2cc(-c3ccc(O)cc3)ccc12
